Literature values in patent US20070083941A1, “Rat TRPM7 polynucleotide and encoded protein” (Wyeth, priority 2005, published 2007).

Target: TRPM7 (Homo sapiens, UniProt Q96QT4)
Conditions: high concentrations of intracellular MgATP and Mg^2+; basal activity of TRPM7; read-out: IC50 of inhibition of TRPM7

TRPM7, sequence (Q96QT4 whole entry, species assumed): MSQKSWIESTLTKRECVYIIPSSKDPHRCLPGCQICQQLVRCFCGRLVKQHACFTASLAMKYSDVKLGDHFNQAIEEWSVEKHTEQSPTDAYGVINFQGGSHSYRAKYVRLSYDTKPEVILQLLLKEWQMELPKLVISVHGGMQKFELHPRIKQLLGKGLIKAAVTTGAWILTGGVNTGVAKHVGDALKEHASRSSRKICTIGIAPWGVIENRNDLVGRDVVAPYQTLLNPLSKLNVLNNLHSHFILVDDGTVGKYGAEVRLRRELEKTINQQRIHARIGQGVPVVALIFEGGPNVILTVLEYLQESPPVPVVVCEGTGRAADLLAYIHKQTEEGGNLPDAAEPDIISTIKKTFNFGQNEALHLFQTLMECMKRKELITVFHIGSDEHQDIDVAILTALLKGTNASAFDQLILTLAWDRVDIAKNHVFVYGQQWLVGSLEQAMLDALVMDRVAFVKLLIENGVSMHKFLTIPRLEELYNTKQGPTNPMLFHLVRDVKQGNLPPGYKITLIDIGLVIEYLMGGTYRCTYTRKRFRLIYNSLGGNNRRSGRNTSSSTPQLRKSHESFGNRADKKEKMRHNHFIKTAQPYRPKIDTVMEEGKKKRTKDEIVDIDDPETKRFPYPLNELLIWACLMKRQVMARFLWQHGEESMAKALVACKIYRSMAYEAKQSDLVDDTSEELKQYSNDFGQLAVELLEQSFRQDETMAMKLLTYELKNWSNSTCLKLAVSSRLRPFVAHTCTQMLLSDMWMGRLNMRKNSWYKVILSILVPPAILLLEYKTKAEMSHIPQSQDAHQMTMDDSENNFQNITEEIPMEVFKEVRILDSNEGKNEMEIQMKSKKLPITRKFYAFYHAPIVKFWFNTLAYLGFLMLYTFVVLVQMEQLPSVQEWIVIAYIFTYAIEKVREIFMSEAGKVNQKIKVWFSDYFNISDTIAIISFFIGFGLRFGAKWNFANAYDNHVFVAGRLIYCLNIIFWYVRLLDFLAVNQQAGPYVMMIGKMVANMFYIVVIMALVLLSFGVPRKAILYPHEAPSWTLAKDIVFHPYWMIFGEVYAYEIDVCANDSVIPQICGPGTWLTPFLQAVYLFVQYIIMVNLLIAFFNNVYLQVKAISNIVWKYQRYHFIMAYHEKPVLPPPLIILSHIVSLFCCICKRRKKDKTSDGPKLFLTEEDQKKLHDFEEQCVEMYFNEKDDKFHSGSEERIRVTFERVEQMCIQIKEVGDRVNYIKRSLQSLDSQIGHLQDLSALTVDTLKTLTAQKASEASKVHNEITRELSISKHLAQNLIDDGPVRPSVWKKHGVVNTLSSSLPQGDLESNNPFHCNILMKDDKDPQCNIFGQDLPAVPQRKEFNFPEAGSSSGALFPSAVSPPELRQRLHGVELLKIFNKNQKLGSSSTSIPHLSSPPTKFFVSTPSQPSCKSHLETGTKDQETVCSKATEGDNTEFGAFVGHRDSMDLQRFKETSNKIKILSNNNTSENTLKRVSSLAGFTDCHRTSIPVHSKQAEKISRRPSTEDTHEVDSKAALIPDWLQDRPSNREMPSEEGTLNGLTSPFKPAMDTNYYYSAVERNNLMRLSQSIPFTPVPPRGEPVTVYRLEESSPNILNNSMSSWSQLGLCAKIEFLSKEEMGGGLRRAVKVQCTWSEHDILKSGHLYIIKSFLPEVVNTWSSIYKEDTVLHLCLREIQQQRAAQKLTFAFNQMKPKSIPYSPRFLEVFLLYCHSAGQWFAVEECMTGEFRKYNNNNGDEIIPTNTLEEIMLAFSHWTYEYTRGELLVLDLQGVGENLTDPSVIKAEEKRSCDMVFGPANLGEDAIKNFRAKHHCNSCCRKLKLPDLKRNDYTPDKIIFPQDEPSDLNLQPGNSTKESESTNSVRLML

SMILES	IC50 [µM]
Nc1ncnc2c1ncn2[C@@H]1O[C@H](COP(=O)(O)OP(=O)(O)OP(=O)(O)O)[C@@H](O)[C@H]1O [MgATP]	~600
[Mg+2] [Mg^2+]	~600
